Assay results: ChEMBL document CHEMBL4364250, “Improvement of Asparagine Ethylenediamines as Anti-malarial Plasmodium-Selective Proteasome Inhibitors” (J Med Chem, 2019)

Key:
[1] = Inhibition of Plasmodium falciparum 20S proteasome beta5 subunit using suc-LLVY-AMC as substrate in presence of beta2 inhibitor WLW-VS
[2] = target: T1, Proteasome Macropain subunit MB1 (Homo sapiens, UniProt P28074); assay: Inhibition of human beta5 20S constitutive proteasome using suc-LLVY-AMC as substrate
T1 sequence (P28074 whole entry): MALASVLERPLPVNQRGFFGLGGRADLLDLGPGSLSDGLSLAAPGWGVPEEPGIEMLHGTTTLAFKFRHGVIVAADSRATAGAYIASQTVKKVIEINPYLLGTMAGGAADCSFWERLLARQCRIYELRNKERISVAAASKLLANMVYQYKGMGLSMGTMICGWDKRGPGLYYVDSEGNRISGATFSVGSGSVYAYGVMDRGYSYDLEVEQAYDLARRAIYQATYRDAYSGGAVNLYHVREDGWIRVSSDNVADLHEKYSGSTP

[3] = target: T2, Proteasome subunit beta type-8 (Homo sapiens, UniProt P28062); assay: Inhibition of human beta5 20S immunoproteasome using Ac-ANW-AMC as substrate
T2 sequence (P28062 whole entry): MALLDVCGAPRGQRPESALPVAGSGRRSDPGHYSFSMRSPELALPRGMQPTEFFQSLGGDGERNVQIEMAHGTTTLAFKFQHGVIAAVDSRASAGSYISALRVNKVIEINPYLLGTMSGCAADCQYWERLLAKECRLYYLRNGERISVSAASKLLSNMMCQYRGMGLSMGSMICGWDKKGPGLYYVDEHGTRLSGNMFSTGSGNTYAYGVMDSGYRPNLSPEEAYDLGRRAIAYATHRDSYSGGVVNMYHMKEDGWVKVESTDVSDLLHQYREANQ

[4] = system: Plasmodium falciparum; assay: Antimalarial activity against erythrocytic stage of Plasmodium falciparum 3D7 measured after 72 hrs by SYBR green dye based fluorescence assay; type: functional, organism-based; details: 3D7, 72 h
[5] = system: beta5 subunit of human 20S constitutive proteasome; assay: Selectivity ratio of IC50 for human beta5 20S constitutive proteasome to IC50 for Plasmodium falciparum 20S proteasome beta5 subunit; type: toxicity; details: read-out: Ratio IC50
[6] = system: beta5 subunit of human 20S immunoproteasome; assay: Selectivity ratio of IC50 for human beta5 20S immunoproteasome to IC50 for Plasmodium falciparum 20S proteasome beta5 subunit; type: toxicity; details: read-out: Ratio IC50
[7] = system: HepG2; assay: Cytotoxicity against human HepG2 cells; type: cell-based
[8] = system: Karpas-1106P; assay: Cytotoxicity against human KARPAS1106P cells; type: cell-based
[9] = system: Plasmodium falciparum; assay: Antimalarial activity against erythrocytic stage of Plasmodium falciparum Dd2 measured after 72 hrs by SYBR green dye based fluorescence assay; type: functional, organism-based; details: Dd2, 72 h
[10] = system: Plasmodium falciparum; assay: Antimalarial activity against erythrocytic stage of Plasmodium falciparum Dd2 harboring 20S beta2 proteasome A117D mutant measured after 72 hrs by SYBR green dye based fluorescence assay; type: functional, organism-based; details: Dd2, 72 h
[11] = system: Plasmodium falciparum; assay: Antimalarial activity against erythrocytic stage of Plasmodium falciparum Dd2 harboring 20S beta5 proteasome A49S mutant measured after 72 hrs by SYBR green dye based fluorescence assay; type: functional, organism-based; details: Dd2, 72 h
[12] = system: Plasmodium falciparum; assay: Resistance index, ratio of EC50 for erythrocytic stage of Plasmodium falciparum Dd2 harboring 20S beta5 proteasome A49S mutant to EC50 erythrocytic stage of Plasmodium falciparum Dd2; type: functional
[13] = system: Plasmodium falciparum; assay: Resistance index, ratio of EC50 for erythrocytic stage of Plasmodium falciparum Dd2 harboring 20S beta6 proteasome A117D mutant to EC50 erythrocytic stage of Plasmodium falciparum Dd2
[14] = Clearance in human liver microsomes; type: ADME, Microsome; details: read-out: CLH
[15] = Clearance in rat liver microsomes; type: ADME, Microsome; details: read-out: CLH
[16] = Clearance in mouse liver microsomes; type: ADME, Microsome; details: read-out: CLH

| Compound | IC50 [1] | IC50 [2] | IC50 [3] | EC50 [4] | selectivity ratio [5] | selectivity ratio [6] | EC50 [7] | EC50 [8] | EC50 [9] | EC50 [10] | EC50 [11] | Ratio EC50 [12] | Ratio EC50 [13] | microsomal CLint [14] | microsomal CLint [15] | microsomal CLint [16] |
| --- | --- | --- | --- | --- | --- | --- | --- | --- | --- | --- | --- | --- | --- | --- | --- | --- |
| Cc1ccc(S(=O)(=O)N[C@@H](CC(=O)NC(C)(C)C)C(=O)NCCNC(=O)c2ccccn2)cc1 | 1.09 µM | 29.4 µM | 2.09 µM | > 2.77 µM | 27 | 1.9 | > 11 µM | > 11.1 µM |  |  |  |  |  |  |  |  |
| Cc1ccc(S(=O)(=O)N[C@@H](CC(=O)NC(C)(C)C)C(=O)NCCNC(=O)c2cc(Cl)ccc2Cl)cc1 | 0.197 µM | > 100 µM | 5.65 µM | 0.118 µM | > 507 | 28.7 | > 11 µM | > 11.1 µM |  |  |  |  |  |  |  |  |
| Cc1ccc(S(=O)(=O)N[C@@H](CC(=O)NC(C)(C)C)C(=O)NCCNC(=O)Nc2ccccc2)cc1 | 2.58 µM | > 100 µM | 2.09 µM | > 2.77 µM | > 3.9 | 0.8 | > 11 µM | > 11.1 µM |  |  |  |  |  |  |  |  |
| Cc1cc(C(=O)N[C@@H](CC(=O)NC(C)(C)C)C(=O)NCCNC(=O)c2cccc(-n3cccn3)c2)no1 |  |  |  |  |  |  |  |  | 0.0276 µM | 0.279 µM | > 2.77 µM | >100 | 10 |  |  |  |
| Cc1ccc(S(=O)(=O)N[C@@H](CC(=O)NC(C)(C)C)C(=O)NCCNC(=O)c2c(O)cccc2F)cc1 | 0.0405 µM | 0.54 µM | 0.0727 µM | 0.0837 µM | 13 | 1.8 | > 11 µM | > 11.1 µM |  |  |  |  |  |  |  |  |
| Cc1ccc(S(=O)(=O)N[C@@H](CC(=O)NC(C)(C)C)C(=O)NCCNC(=O)c2cccc(C(C)C)c2)cc1 | 0.0404 µM | 9.12 µM | 0.2 µM | 0.0985 µM | 225 | 5 | > 11 µM | > 11.1 µM |  |  |  |  |  |  |  |  |
| Cc1ccc(S(=O)(=O)N[C@@H](CC(=O)NC(C)(C)C)C(=O)NCCNC(=O)c2cccc(O)c2)cc1 | 0.0224 µM | 4.38 µM | 0.475 µM | 0.0154 µM | 195 | 21 | > 11 µM | > 11.1 µM |  |  |  |  |  |  |  |  |
| CC(C)C[C@@H](/C=C/S(C)(=O)=O)NC(=O)[C@H](CC(C)C)NC(=O)[C@H](Cc1c[nH]c2ccccc12)NC(=O)CN1CCOCC1 |  |  |  |  |  |  |  |  | 0.0916 µM | 0.0073 µM | 0.026 µM | 0.28 | 0.08 |  |  |  |
| CC(C)C[C@H](NC(=O)[C@H](Cc1ccccc1)NC(=O)c1cnccn1)B(O)O [BORTEZOMIB] |  |  |  |  |  |  |  |  | 0.419 µM | 0.106 µM | 1.02 µM | 2.4 | 0.25 |  |  |  |
| COc1cc(OC)cc(C(=O)NCCNC(=O)[C@H](CC(=O)NC(C)(C)C)NS(=O)(=O)c2ccc(C)cc2)c1 | 4.06 µM | > 100 µM | 9.97 µM | > 2.77 µM | > 24.7 | 2.5 | > 11 µM | > 11.1 µM |  |  |  |  |  |  |  |  |
| Cc1ccc(S(=O)(=O)N[C@@H](CC(=O)NC(C)(C)C)C(=O)NCCNS(=O)(=O)c2ccccc2)cc1 | 15.1 µM | > 100 µM | 2.89 µM | > 2.77 µM | > 6.6 | 0.2 | > 11 µM | > 11.1 µM |  |  |  |  |  |  |  |  |
| Cc1ccc(S(=O)(=O)N[C@@H](CC(=O)NC(C)(C)C)C(=O)NCCNC(=O)c2ccc(Cl)cc2)cc1 | 0.113 µM | 5 µM | 0.038 µM | 0.13 µM | 44 | 0.3 | > 11 µM | > 11.1 µM |  |  |  |  |  |  |  |  |
| Cc1ccc(S(=O)(=O)N[C@@H](CC(=O)NC(C)(C)C)C(=O)NCCNC(=O)c2ccccc2O)cc1 | 0.0061 µM | 0.409 µM | 0.024 µM | 0.0096 µM | 67 | 4 | > 11 µM | > 11.1 µM |  |  |  |  |  |  |  |  |
| Cc1ccc(S(=O)(=O)N[C@@H](CC(=O)NC(C)(C)C)C(=O)NCCNC(=O)c2cccc(C(F)(F)F)c2)cc1 | 0.25 µM | 37.1 µM | 0.763 µM | 0.167 µM | 148 | 3.1 | > 11 µM | > 11.1 µM |  |  |  |  |  |  |  |  |
| Cc1ccc(S(=O)(=O)N[C@@H](CC(=O)NC(C)(C)C)C(=O)NCCNC(=O)c2cc(Cl)ccn2)cc1 | 0.911 µM | > 100 µM | 3.56 µM | 0.283 µM | > 110 | 3.9 | > 11 µM | > 11.1 µM |  |  |  |  |  |  |  |  |
| Cc1ccc(S(=O)(=O)N[C@@H](CC(=O)NC(C)(C)C)C(=O)NCCNC(=O)c2cccc(F)c2)cc1 | 0.0296 µM | 2.2 µM | 0.128 µM | 0.0117 µM | 74 | 4.3 | > 11 µM | > 11.1 µM |  |  |  |  |  |  |  |  |
| CC(C)(C)NC(=O)C[C@H](NC(=O)CCc1ccccc1)C(=O)NCCNC(=O)c1cccc(-c2ccccc2)c1 |  |  |  |  |  |  |  |  | 0.0025 µM | 0.326 µM | 1.35 µM | 541 | 130 |  |  |  |
| Cc1ccc(S(=O)(=O)N[C@@H](CC(=O)NC(C)(C)C)C(=O)NCCNC(=O)c2ccc(F)c(F)c2)cc1 | 0.126 µM | 6.04 µM | 0.195 µM | 0.0688 µM | 48 | 1.5 | > 11 µM | > 11.1 µM |  |  |  |  |  |  |  |  |
| Cc1ccc(S(=O)(=O)N[C@@H](CC(=O)NC(C)(C)C)C(=O)NCCNC(=O)NCc2ccccc2)cc1 | 2.77 µM | 46.6 µM | 2.35 µM | 2.14 µM | 16.8 | 0.85 | > 11 µM | > 11.1 µM |  |  |  |  |  |  |  |  |
| Cc1ccc(S(=O)(=O)N[C@@H](CC(=O)NC(C)(C)C)C(=O)NCCNC(=O)c2ccccc2Cl)cc1 | 0.211 µM | 26 µM | 1.4 µM | 0.098 µM | 123 | 6.6 | > 11 µM | > 11.1 µM |  |  |  |  |  |  |  |  |
| Cc1ccc(S(=O)(=O)N[C@@H](CC(=O)NC(C)(C)C)C(=O)NCCNC(=O)c2cccc(C#N)c2)cc1 | 0.39 µM | 40.2 µM | 4.69 µM | 0.132 µM | 103 | 12 | > 11 µM | > 11.1 µM |  |  |  |  |  |  |  |  |
| Cc1ccc(S(=O)(=O)N[C@@H](CC(=O)NC(C)(C)C)C(=O)NCCNC(=O)c2cc(C)ccn2)cc1 | 0.639 µM | > 100 µM | 3.11 µM | 0.227 µM | > 156 | 4.9 | > 11 µM | > 11.1 µM |  |  |  |  |  |  |  |  |
| Cc1ccc(S(=O)(=O)N[C@@H](CC(=O)NC(C)(C)C)C(=O)NCCNC(=O)c2ccc(F)cc2)cc1 | 0.121 µM | 6.7 µM | 0.179 µM | 0.0509 µM | 55 | 1.5 | > 11 µM | > 11.1 µM |  |  |  |  |  | 149 µL/min/mg | 81 µL/min/mg | 49 µL/min/mg |
